The results in this text go back to EP0514268A1, “Substituted amino acid azetidinyl pyridone derivatives, their preparation and use as medicines” (LABORATORIOS DEL DR. ESTEVE, S.A., priority 1991, dated 1992).

Data set [1] has as its system Citr. freundii ATCC 11606. The experiment in a line: Antimicrobial activity, agar dilution. In kind it is cell-based, Citrobacter freundii. The settings on record: Citrobacter freundii, ATCC11606, 20 h, Agar Dextrose dilutions, 37°C, 20 heures, read-out: Activité pharmacologique antimicrobienne (concentrations). From the text: (§1) L'activité pharmacologique antimicrobienne de ces composés a été étudiée selon les références exposées ci-dessous.
(§2) Activité pharmacologique antimicrobienne : G.L. Daquet et Y.A. Chabbect, techniques en bactériologie, Vol. 3, Flammarion Médecine-Sciences, Paris 1972, et W.B. Hugo et A.D. Rusell, Pharmaceutical Microbiology, Blackwell Scientific Publications, London, 1977.
(§3) Milieu de culture et solvant : Agar d'antibiotiques n° 1 (Oxoid CM 327) Bouillon de triptone-soja (Oxoid CM 129) Solution Physiologique Ringer 1/4 (Oxoid BR 52) Agar Dextrose (BBL 11165)
(§4) Microorganismes : "Bacillus subtilis" ATCC 6633 "Citrobacter freundii" ATCC 112606 "Enterobacter aerogenes" ATCC 15038 "Enterobacter cloacae" ATCC 23355 "Bacillus cereus" ATCC 1178 "Escherichia coli" ATCC 10799 "Escherichia coli" ATCC 23559 "Klebsiella pneumoniae" ATCC 10031 "Proteus vulgaris" ATCC 8427 "Morg. morganii" ATCC 8019 "Pseudomonas aeruginosa" ATCC 9721 "Pseudomonas aeruginosa" ATCC 10145 "Salmonella typhimurium" ATCC 14028 "Salmonella typhimurium" ATCC 6539 "Serratia marcescens" ATCC 13880 "Shigella flexnerii" ATCC 12022 "Staphylococcusepidermis" ATCC 155-1 "Staphylococcus aureus" ATCC 25178 "Streptococcus faecalis" ATCC 10541.
(§5) Chacun des microorganismes est ensemencé par strie dans des tubes d'Agar d'antibiotiques n° 1, et mis en incubation pendant 20 heures à 37°C. Ensuite, on prend une anse de culture, on ensemence dans un bouillon de Triptone-soja et on incube pendant 20 heures à 37°C. On dilue à 1/4 la culture obtenue avec une solution physiologique Ringer, de façon à obtenir une suspension normalisée de […] pour chaque organisme.
(§6) A partir d'une solution de 100 µg/ml, chaque produit est dilué dans l'Agar Dextrose (préalablement fondu et maintenu à 50°C) par dilutions successives de façon à obtenir les concentrations suivantes : 64-32-16-8-4-2-1-0,5-0,25-0,125 µg de dérivé/ml du milieu.
(§7) Postérieurement, chaque concentration de chaque produit est répartie dans des boîtes de Petri de 10 cm de diamètre, à raison de 10 ml de milieu par boîte et autant de boîtes que de microorganismes à tester.
(§8) Une fois le milieu refroidi, les boîtes sont ensemencées avec les inoculations à raison de 0,4 ml d'inoculation par boîte. On les étend avec une anse de Driglasky et on recueille le surnageant. Les boîtes ensemencées sont incubées à 37°C pendant 20 heures.
(§9) Les résultats obtenus sont décrits dans les tableaux suivants. Les concentrations sont données en µg/ml.
A general note: In agar dilution, organisms are placed on agar that contains the substance at set levels.

Data set [2] can be described thus: Solubility in water and at pH 7.4. It is filed as physicochemical. An excerpt: Un grand nombre des composés de l'invention manifestent une augmentation de la solubilité dans l'eau ainsi que de la solubilité à pH 7,4 lorsqu'on compare avec les composés de référence. L'augmentation de solubilité au pH physiologique peut favoriser l'absorption du produit et la solubilité élevée dans l'eau permet l'administration du composé par voie parentérale.

Data set [3] deals with Kleb. pneumoniae ATCC 10031. Put plainly: Antimicrobial activity, agar dilution. The note with it: Klebsiella pneumoniae, ATCC10031, 20 h, Agar Dextrose dilutions, 37°C, 20 heures, read-out: Activité pharmacologique antimicrobienne (concentrations). It is filed as cell-based, Klebsiella pneumoniae.
Description: as §1, §2, §3, §4, §5, §6, §7, §8, §9

Data set [4] has as its system Bacillus cereus ATCC 11778. The experiment in a line: Antimicrobial activity, agar dilution. The note with it: Bacillus cereus, ATCC11778, 20 h, Agar Dextrose dilutions, 37°C, 20 heures, read-out: Activité pharmacologique antimicrobienne (concentrations). In kind it is cell-based.
Description: as §1, §2, §3, §4, §5, §6, §7, §8, §9

The next data set has as its system Sal. typhi ATCC 6539. Put plainly: Antimicrobial activity, agar dilution. It is filed as cell-based. The settings on record: Salmonella enterica, 20 h, read-out: Activité pharmacologique antimicrobienne (concentrations).
Description: as §1, §2, §3, §4, §5, §6, §7, §8, §9

Another data set concerns Morg. morganii ATCC 8019. Put plainly: Antimicrobial activity, agar dilution. In kind it is cell-based. The note with it: Morganella morganii, ATCC8019, 20 h, Agar Dextrose dilutions, 37°C, 20 heures, read-out: Activité pharmacologique antimicrobienne (concentrations).
Description: as §1, §2, §3, §4, §5, §6, §7, §8, §9

The test system of data set [5] is Shigella flexnerii ATCC 12022. The experiment in a line: Antimicrobial activity, agar dilution. It is filed as cell-based. The settings on record: ATCC12022, 20 h, Agar Dextrose dilutions, 37°C, 20 heures, read-out: Activité pharmacologique antimicrobienne (concentrations).
Description: as §1, §2, §3, §4, §5, §6, §7, §8, §9

Another data set has as its system Ps. aeruginosa ATCC 9721. The experiment in a line: Antimicrobial activity, agar dilution. It is filed as cell-based. The settings on record: Pseudomonas aeruginosa, ATCC9721, 20 h, Agar Dextrose dilutions, 37°C, 20 heures, read-out: Activité pharmacologique antimicrobienne (concentrations).
Description: as §1, §2, §3, §4, §5, §6, §7, §8, §9

Data set [6] relates to Escherichia coli ATCC 10799. Put plainly: Antimicrobial activity, agar dilution. In kind it is cell-based. The settings on record: Escherichia coli, ATCC10799, 20 h, Agar Dextrose dilutions, 37°C, 20 heures, read-out: Activité pharmacologique antimicrobienne (concentrations).
Description: as §1, §2, §3, §4, §5, §6, §7, §8, §9

Data set [7] deals with Staph. epidermidis ATCC 155-1. The experiment in a line: Antimicrobial activity, agar dilution. In kind it is cell-based. The note with it: Staphylococcus epidermidis, ATCC155, 20 h, Agar Dextrose dilutions, 37°C, 20 heures, read-out: Activité pharmacologique antimicrobienne (concentrations).
Description: as §1, §2, §3, §4, §5, §6, §7, §8, §9

Data set [8] deals with Bacillus subtilis ATCC 6633. Put plainly: Antimicrobial activity, agar dilution. In kind it is cell-based. The note with it: ATCC6633, 20 h, Agar Dextrose dilutions, 37°C, 20 heures, read-out: Activité pharmacologique antimicrobienne (concentrations).
Description: as §1, §2, §3, §4, §5, §6, §7, §8, §9

Data set [9] concerns Escherichia coli ATCC 23559. Put plainly: Antimicrobial activity, agar dilution. In kind it is cell-based. The settings on record: Escherichia coli, ATCC23559, 20 h, Agar Dextrose dilutions, 37°C, 20 heures, read-out: Activité pharmacologique antimicrobienne (concentrations).
Description: as §1, §2, §3, §4, §5, §6, §7, §8, §9

The subject of data set [10] is Proteus vulgaris ATCC 8427. The experiment in a line: Antimicrobial activity, agar dilution. In kind it is cell-based. The settings on record: Proteus vulgaris, ATCC8427, 20 h, Agar Dextrose dilutions, 37°C, 20 heures, read-out: Activité pharmacologique antimicrobienne (concentrations).
Description: as §1, §2, §3, §4, §5, §6, §7, §8, §9

Data set [11] has as its system Ps. aeruginosa ATCC 10145. The experiment in a line: Antimicrobial activity, agar dilution. The settings on record: Pseudomonas aeruginosa, ATCC10145, 20 h, Agar Dextrose dilutions, 37°C, 20 heures, read-out: Activité pharmacologique antimicrobienne (concentrations). In kind it is cell-based.
Description: as §1, §2, §3, §4, §5, §6, §7, §8, §9

In a further data set the test system is Staph. aureus ATCC 25178. Put plainly: Antimicrobial activity, agar dilution. It is filed as cell-based, Staphylococcus aureus. The note with it: Staphylococcus aureus, ATCC25178, 20 h, Agar Dextrose dilutions, 37°C, 20 heures, read-out: Activité pharmacologique antimicrobienne (concentrations).
Description: as §1, §2, §3, §4, §5, §6, §7, §8, §9

The test system of data set [12] is Sal. typhimurium ATCC 14028. Put plainly: Antimicrobial activity, agar dilution. In kind it is cell-based, Salmonella typhimurium. The settings on record: Salmonella enterica, 20 h, Agar Dextrose dilutions, 37°C, 20 heures, read-out: Activité pharmacologique antimicrobienne (concentrations).
Description: as §1, §2, §3, §4, §5, §6, §7, §8, §9

Data set [13] concerns Serr. marcescens ATCC 13880. Put plainly: Antimicrobial activity, agar dilution. The note with it: Serratia marcescens, ATCC13880, 20 h, Agar Dextrose dilutions, 37°C, 20 heures, read-out: Activité pharmacologique antimicrobienne (concentrations). It is filed as cell-based, Serratia marcescens.
Description: as §1, §2, §3, §4, §5, §6, §7, §8, §9

For another data set, the system named is Ent. cloacae ATCC 23355. The experiment in a line: Antimicrobial activity, agar dilution. It is filed as cell-based, Enterobacter cloacae. The settings on record: Enterobacter cloacae, ATCC23355, 20 h, Agar Dextrose dilutions, 37°C, 20 heures, read-out: Activité pharmacologique antimicrobienne (concentrations).
Description: as §1, §2, §3, §4, §5, §6, §7, §8, §9

Data set [14] has as its system Ent. aerogenes ATCC 15038. The experiment in a line: Antimicrobial activity, agar dilution. It is filed as cell-based, Enterobacter aerogenes. The settings on record: Klebsiella aerogenes, ATCC15038, 20 h, Agar Dextrose dilutions, 37°C, 20 heures, read-out: Activité pharmacologique antimicrobienne (concentrations).
Description: as §1, §2, §3, §4, §5, §6, §7, §8, §9

The test system of data set [15] is Strep. faecalis ATCC 10541. The experiment in a line: Antimicrobial activity, agar dilution. It is filed as cell-based, Streptococcus faecalis. The settings on record: Enterococcus faecalis, ATCC10541, 20 h, Agar Dextrose dilutions, 37°C, 20 heures, read-out: Activité pharmacologique antimicrobienne (concentrations).
Description: as §1, §2, §3, §4, §5, §6, §7, §8, §9

≈ marks a conversion by molar mass, not a printed value. Some results are limits rather than exact numbers.

Consider `C[C@H](N)C(=O)N[C@@H](C)C(=O)N[C@@H]1CN(c2nc3c(cc2F)c(=O)c(C(=O)O)cn3C2CC2)[C@H]1C` [Exemple 4aAA], for which the MIC came out at 2 µg/mL (≈ 4.22 µM) in [1]; 8 µg/mL (≈ 16.9 µM) in [3]; 16 µg/mL (≈ 33.7 µM) in data set [4]; 2 µg/mL (≈ 4.22 µM) in the data set with Sal. typhi ATCC 6539; 4 µg/mL (≈ 8.43 µM) in the data set with Morg. morganii ATCC 8019; 2 µg/mL (≈ 4.22 µM) in [5]. The MIC in the data set on Ps. aeruginosa ATCC 9721 is greater than 16 µg/mL; in data set [6], 2 µg/mL (≈ 4.22 µM); in data set [7] it was 8 µg/mL (≈ 16.9 µM); in [8], 1 µg/mL (≈ 2.11 µM); in data set [9], 2 µg/mL (≈ 4.22 µM); in data set [10], 8 µg/mL (≈ 16.9 µM). The MIC in data set [11] is greater than 16 µg/mL; in the data set with Staph. aureus ATCC 25178, 4 µg/mL (≈ 8.43 µM); in data set [12], 2 µg/mL (≈ 4.22 µM); in data set [13], 8 µg/mL (≈ 16.9 µM); in the data set on Ent. cloacae ATCC 23355, 2 µg/mL (≈ 4.22 µM); in data set [14] it was 2 µg/mL (≈ 4.22 µM). Also, the MIC in data set [15] was greater than 16 µg/mL. The solubility in [2] (pH 7) and in data set [2] (water) was greater than 500 µg/mL each time.
Regarding `CC(C)C[C@H](N)C(=O)N[C@@H]1CN(c2nc3c(cc2F)c(=O)c(C(=O)O)cn3C2CC2)[C@H]1C` [Exemple 4aL, chlorhydratede l'acide 7-[(2S,3R)-2-méthyl-3-Leu-amino-1-azétidinyl]-1-cyclopropyl-6-fluoro-1,4-dihydro-4-oxo-1,8-naphtyridine-3-carboxylique], the MIC was found to be 0.12 µg/mL in data set [1]; 0.06 µg/mL in data set [3]; 0.12 µg/mL in data set [4]; 0.12 µg/mL in the data set with Sal. typhi ATCC 6539; 0.25 µg/mL in the data set on Morg. morganii ATCC 8019; 0.06 µg/mL in data set [5]. In addition, the MIC in the data set with Ps. aeruginosa ATCC 9721 is 2 µg/mL; in data set [6], 0.12 µg/mL; in data set [7], 0.25 µg/mL; in data set [8] it was 0.12 µg/mL; in data set [9], 0.06 µg/mL; in data set [10], 0.25 µg/mL. Besides, the MIC in data set [11] amounted to 8 µg/mL; in the data set on Staph. aureus ATCC 25178 it was 0.25 µg/mL; in data set [12] it was 0.12 µg/mL; in data set [13], 0.25 µg/mL; in the data set on Ent. cloacae ATCC 23355, 0.12 µg/mL; in data set [14], 0.12 µg/mL. For the same compound, the MIC in [15] was found to be 2 µg/mL. Also, the solubility in data set [2] (pH 7) and in data set [2] (water) was greater than 500 µg/mL in each case.
